#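 These data come from cells grown in 96-well plates and exposed to compound for 48 hours at five concentrations. At the TGI there is no net growth.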
# Columns and labels:
# Assay in all cases: NCI-60 cell line screen, 48 h
# [1] = test system: HOP-62 NSCLC
# [2] = test system: CCRF-CEM leukemia
# [3] = test system: HT29 colon
# [4] = test system: DU-145 prostate
# [5] = test system: HCT-15 colon
# [6] = test system: NCI-H460 lung
# [7] = test system: U251 CNS
# [8] = test system: UACC-62 melanoma
# [9] = test system: MCF7 breast
# [10] = test system: MOLT-4 leukemia
# [11] = test system: A549 NSCLC
# [12] = test system: T-47D breast
# [13] = test system: SK-MEL-28 melanoma
# [14] = test system: SF-268 CNS
# [15] = test system: MDA-N
# [16] = test system: RPMI-8226 leukemia
# [17] = test system: NCI-H226 lung
# [18] = test system: PC-3 prostate
# [19] = test system: UACC-257 melanoma
# [20] = test system: OVCAR-5 ovarian
# [21] = test system: SK-MEL-2 melanoma
# [22] = test system: COLO 205 colon
# [23] = test system: HL-60(TB) leukemia
# [24] = test system: TK-10 renal
# [25] = test system: EKVX NSCLC
# [26] = test system: HS 578T breast
# [27] = test system: SN12C renal
# [28] = test system: MDA-MB-231 breast
# [29] = test system: K-562 leukemia
# [30] = test system: HCT-116 colon
# [31] = test system: M14 melanoma
# [32] = test system: 786-0 renal
# [33] = test system: NCI-H522 lung
# [34] = test system: SF-539 CNS
# [35] = test system: SK-MEL-5 melanoma
# [36] = test system: SK-OV-3 ovarian
# [37] = test system: SF-295 CNS
# [38] = test system: OVCAR-8 ovarian
# [39] = test system: A498 renal
# [40] = test system: RXF 393 renal
# [41] = test system: IGROV1 ovarian
# [42] = test system: UO-31 renal
# [43] = test system: ACHN renal
# [44] = test system: MALME-3M melanoma
# [45] = test system: CAKI-1 renal
# [46] = test system: HOP-92 NSCLC
# [47] = test system: NCI/ADR-RES ovarian
# [48] = test system: KM12 colon
# [49] = test system: MDA-MB-435
# [50] = test system: NCI-H23 lung
# [51] = test system: OVCAR-4 ovarian
# [52] = test system: LOX IMVI melanoma
# [53] = test system: SNB-19 CNS
# [54] = test system: SW-620 colon
# [55] = test system: SNB-75 CNS
# [56] = test system: OVCAR-3 ovarian
# [57] = test system: HCC-2998 colon
# [58] = test system: BT-549 breast
# [59] = test system: SR leukemia
smiles,measurement,setting,value
COC(CN(C=O)[C@@H](c1ccc(Cl)cc1)c1cc2ccccc2o1)OC,TGI,[1],43.5 µM
same,TGI,[2],44 µM
same,TGI,[3],36.3 µM
same,TGI,[4],30.9 µM
same,TGI,[5],32.8 µM
same,TGI,[6],33.3 µM
same,TGI,[7],31.8 µM
same,TGI,[8],29.7 µM
same,TGI,[9],34.8 µM
same,TGI,[10],40 µM
same,TGI,[11],45.4 µM
same,TGI,[12],33.8 µM
same,TGI,[13],34.5 µM
same,TGI,[14],30.9 µM
same,TGI,[15],31.6 µM
same,TGI,[16],35.3 µM
same,TGI,[17],34 µM
same,TGI,[18],45.6 µM
same,TGI,[19],28 µM
same,TGI,[20],29.8 µM
same,TGI,[21],31.9 µM
same,TGI,[22],33.5 µM
same,TGI,[23],46.3 µM
same,TGI,[24],33.4 µM
same,TGI,[25],34.4 µM
same,TGI,[26],27.6 µM
same,TGI,[27],31.1 µM
same,TGI,[28],37 µM
same,TGI,[29],53.6 µM
same,TGI,[30],32.9 µM
same,TGI,[31],37.1 µM
same,TGI,[32],51.1 µM
same,TGI,[33],29.2 µM
same,TGI,[34],34.3 µM
same,TGI,[35],28.9 µM
same,TGI,[36],26.6 µM
same,TGI,[37],31 µM
same,TGI,[38],31.3 µM
same,TGI,[39],33.1 µM
same,TGI,[40],28.4 µM
same,TGI,[41],30.7 µM
same,TGI,[42],31.2 µM
same,TGI,[43],41.7 µM
same,TGI,[44],11.5 µM
same,TGI,[45],34.7 µM
same,TGI,[46],33.7 µM
same,TGI,[47],41.9 µM
same,TGI,[48],31.4 µM
same,TGI,[49],35.5 µM
same,TGI,[50],39.2 µM
same,TGI,[51],40 µM
same,TGI,[52],34.5 µM
same,TGI,[53],41.2 µM
same,TGI,[54],31.4 µM
same,TGI,[55],42.7 µM
same,TGI,[56],26.8 µM
C[S+](C)CC(=O)c1ccc2c(c1)Sc1ccccc1O2,TGI,[1],28.4 µM
same,TGI,[2],> 100 µM
same,TGI,[3],9.15 µM
same,TGI,[4],11 µM
same,TGI,[5],13.2 µM
same,TGI,[6],16.2 µM
same,TGI,[7],17.6 µM
same,TGI,[8],9.38 µM
same,TGI,[9],7.28 µM
same,TGI,[10],> 94.4 µM
same,TGI,[11],18.1 µM
same,TGI,[12],> 44.4 µM
same,TGI,[13],25.1 µM
same,TGI,[14],14.6 µM
same,TGI,[16],> 39.2 µM
same,TGI,[17],11.5 µM
same,TGI,[18],4.03 µM
same,TGI,[19],18.2 µM
same,TGI,[20],18.8 µM
same,TGI,[21],10 µM
same,TGI,[23],> 100 µM
same,TGI,[57],7.71 µM
same,TGI,[24],16.3 µM
same,TGI,[25],14.4 µM
same,TGI,[26],22.1 µM
same,TGI,[27],36.3 µM
same,TGI,[28],18.7 µM
same,TGI,[29],> 100 µM
same,TGI,[30],7.32 µM
same,TGI,[31],3.48 µM
same,TGI,[32],9.49 µM
same,TGI,[58],6.17 µM
same,TGI,[59],> 50.9 µM
same,TGI,[33],2.5 µM
same,TGI,[34],2.29 µM
same,TGI,[35],2.92 µM
same,TGI,[36],19.6 µM
same,TGI,[37],16 µM
same,TGI,[38],13.6 µM
same,TGI,[39],26.9 µM
same,TGI,[40],9.23 µM
same,TGI,[41],8.1 µM
same,TGI,[42],12 µM
same,TGI,[43],16.1 µM
same,TGI,[44],12 µM
same,TGI,[45],15 µM
same,TGI,[46],21.5 µM
same,TGI,[47],> 39.7 µM
same,TGI,[48],2.87 µM
same,TGI,[49],10.1 µM
same,TGI,[50],14 µM
same,TGI,[51],15.4 µM
same,TGI,[52],20.9 µM
same,TGI,[53],17.1 µM
same,TGI,[54],> 43.2 µM
same,TGI,[55],14.2 µM
same,TGI,[56],7.58 µM

# — PubChem BioAssay (NCI)
